Each structure is given as a SMILES string.

Data set [1] has as its target T1, chimeric receptor having the extra-cellular domain of EGF-R and the intra-cellular domain of Her2 (Homo sapiens, UniProt P04626).
T1 construct: fused on or other part: the same chimera
The experiment in a line: EGF-induced Her2-driven BrdU incorporation. The format is cell-based. Particulars: read-out: BrdU HER 2 driven IC50. As to the method: The cellular/catalytic assays described herein are performed in an ELISA format. The general procedure is as follows: a compound is introduced to cells expressing the test kinase, either naturally or recombinantly, for a selected period of time after which, if the test kinase is a receptor, a ligand known to activate the receptor is added. The cells are lysed and the lysate is transferred to the wells of an ELISA plate previously coated with a specific antibody recognizing the substrate of the enzymatic phosphorylation reaction. Non-substrate components of the cell lysate are washed away and the amount of phosphorylation on the substrate is detected with an antibody specifically recognizing phosphotyrosine compared with control cells that were not contacted with a test compound. The cellular/biologic assays described herein measure the amount of DNA made in response to activation of a test kinase, which is a general measure of a proliferative response. The general procedure for this assay is as follows: a compound is introduced to cells expressing the test kinase, either naturally or recombinantly, for a selected period of time after which, if the test kinase is a receptor, a ligand known to activate the receptor is added. After incubation at least overnight, a DNA labeling reagent such as Bromodeoxyuridine (BrdU) or 3H-thymidine is added. The amount of labeled DNA is detected with either an anti-BrdU antibody or by measuring radioactivity and is compared to control cells not contacted with a test compound.
EGF-Induced Her2-Driven BrdU Incorporation
Protocol • (1) Cells-are seeded at 8000 cells/well in DMEM, 10% CS, 2mM Gln in a 96-well plate. Cells are incubated overnight at 37° C. in 5% CO2. • (2) After 24 hours, the cells are washed with PBS, and then are serum starved in serum free medium (0% CS DMEM with 0.1% BSA) for 24 hours. • (3) On day 3, ligand (EGF=2 nM, prepared in DMEM with 0.1% BSA) and test compounds are added to the cells simultaneously. The negative control wells receive serum free DMEM with 0.1% BSA only, the positive control cells receive the ligand (EGF) but no test compound. Test compounds are prepared in serum free DMEM with ligand in a 96 well plate, and serially diluted for 7 test concentrations. • (4) After 20 hours of ligand activation, diluted BrdU labeling reagent (1:100 in DMEM, 0.1% BSA) is added and the cells are incubated with BrdU (final concentration=10 μM) for 1.5 hours. • (5) After incubation with labeling reagent, the medium is removed by decanting and tapping the inverted plate on a paper towel. FixDenat solution is added (50 μl/well) and the plates are incubated at room temperature for 45 minutes on a plate shaker. • (6) The FixDenat solution is thoroughly removed by decanting and tapping the inverted plate on a paper towel. Milk is added (5% dehydrated milk in PBS, 200 μ/well) as a blocking solution and the plate is incubated for 30 minutes at room temperature on a plate shaker. • (7) The blocking solution is removed by decanting and the wells are washed once with PBS. Anti-BrdU-POD solution (1:100 dilution in PBS, 1% BSA) is added (100 μl/well) and the plate is incubated for 90 minutes at room temperature on a plate shaker. • (8) The antibody conjugate is thoroughly removed by decanting and rinsing the wells 5 times with PBS, and the plate is dried by inverting and tapping on a paper towel. • (9) TMB substrate solution is added (100 μl/well) and incubated for 20 minutes at room temperature on a plate shaker until color development is sufficient for photometric detection. • (10) The absorbance of the samples are measured at 410 nm (in “dual wavelength” mode with a filter reading at 490 nm, as a reference wavelength) on a Dynatech ELISA plate reader.
(In general: Dividing cells build labelled thymidine or BrdU into new DNA.)

T1 sequence (P04626 676-1255 limits assumed, change not shown): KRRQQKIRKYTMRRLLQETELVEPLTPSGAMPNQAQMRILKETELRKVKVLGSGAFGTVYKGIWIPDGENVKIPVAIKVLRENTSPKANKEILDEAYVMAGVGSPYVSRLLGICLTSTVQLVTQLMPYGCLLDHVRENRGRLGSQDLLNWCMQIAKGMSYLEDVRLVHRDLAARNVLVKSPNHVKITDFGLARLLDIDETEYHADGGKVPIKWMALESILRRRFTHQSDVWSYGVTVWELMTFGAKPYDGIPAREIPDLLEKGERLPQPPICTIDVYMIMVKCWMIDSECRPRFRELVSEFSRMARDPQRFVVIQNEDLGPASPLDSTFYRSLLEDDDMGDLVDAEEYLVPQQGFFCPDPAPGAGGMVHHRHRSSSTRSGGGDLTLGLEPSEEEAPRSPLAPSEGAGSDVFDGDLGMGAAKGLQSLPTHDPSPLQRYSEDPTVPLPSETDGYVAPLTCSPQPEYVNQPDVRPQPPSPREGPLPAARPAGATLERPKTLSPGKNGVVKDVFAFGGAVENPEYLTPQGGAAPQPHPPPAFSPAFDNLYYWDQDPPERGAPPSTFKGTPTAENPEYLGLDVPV

The term melting point denotes the temperature of the solid-liquid transition. For `COc1ccc2c(c1)NC(=O)/C2=C\c1[nH]c2c(c1CCC(=O)O)CCCC2` [Example 196, 3-[2-(6-Methoxy-2-oxo-1,2-dihydroindol-3-ylidenemethyl)-4,5,6,7-tetrahydro-1H-indol-3-yl]-propionic acid], the melting point is 263 to 266 °C.

A word on the IC50: it is the concentration at which inhibition is half-maximal. Turning to `COc1c(C(C)C)cc(/C=C2/C(=O)Nc3ccccc32)cc1C(C)C` [Example 1, 3-(3,5-Diisopropyl-4-methoxybenzylidene)-1,3-dihydroindol-2-one], the half-inhibitory concentration (IC50) in data set [1] was determined as 8.7 µM.

The record behind these values is patent publication US6855730B2, “3-methylidenyl-2-indolinone modulators of protein kinase” (Sugen, Inc., priority 1998, dated 2005).
